In test [1] the test system is HUVEC cells. In words: CCK-8 cell survival: ameliorating proliferative toxicity of VEGF/VEGFR inhibitor (Examples 4-15). Type of test: cell-based. The conditions noted are these: agent 100 μM, 24-48 h.
In test [2] the test system is HaCaT cells. Type of test: cell-based, human.
The test system of test [3] is HUVEC cells. Type of test: cell-based. To be noted: Sorafenib (V1) 10 μM + agent 50 μM, 24 hours, CCK-8.
Test [4] concerns Calmodulin (CaM). In words: Western Blot expression level in HaCaT cells (Example 147). Type of test: cell-based, human. The conditions noted are these: 24 hours, compared with the control group. Background: A western blot detects proteins with antibodies after separation by electrophoresis.
Method: In the present application, compared effect of the nitric oxide releasing agent with calcium channel blocker on expression levels of calmodulin and calreticulin in HaCat cell The cultured HaCaT cells were digested, suspended, counted, and seeded into a 6-well plate with 200,000 cells per well. After the cells were attached, a nitric oxide releasing agent (or calcium channel blocker) solution was added to achieve a particular final concentration. A basic medium was added into the control group. At 24 hours after administration of the nitric oxide releasing agent (or calcium channel blocker), RIPA lysate [MUT], Beyotime Biotechnology) was used to extract protein. The change of expressions of calmodulin and calreticulin was determined by Western Blot. […] Image Lab was used to analyze the gray value results. GraphPad Prism 6.0 Software and t-test were used to carry out a statistic analysis of the results and plot a graph. Of those, represents P<0.001, ** represents P<0.01, * represents P<0.05, indicating a significant difference as compared with the corresponding control group; as statistically analyzed by using t-test.
Where [5] appears, read: HaCaT, Sorafenib (V1) 10 μM + agent 50 μM, 24 hours, CCK-8.

Structures are written as SMILES. Like-named read-outs stand apart in the source and are kept apart here.

Regarding `NCCN(CCN)/[N+]([O-])=N/O` [3,3-Bis (aminoethyl)-1-hydroxy-2-oxo-1-triazene], the “Cell Survival Rate (viable cells increased vs VEGF/VEGFR inhibitor group)” value in test [1] (Regorafenib 10 μM) was “Increased by 15-20%”; in test [1] (Sorafenib 5 μM) it was “Increased by 35-45%”; in test [1] (Sunitinib 5 μM) it was “Increased by 20-30%”.

With `N=c1c[n+](N2CCOCC2)[n-]o1` [3-morpholinosydnonimine], the “Cell Survival Rate (viable cells increased vs VEGF/VEGFR inhibitor group)” value in test [1] (Regorafenib 10 μM) is “Increased by 15-20%”; in test [1] (Sorafenib 5 μM), “Increased by 30-40%”; in test [1] (Sunitinib 5 μM), “Increased by 10-20%”.

For `CC(C)CCON=O` [Isoamyl Nitrite], the “Cell Survival Rate (viable cells increased vs VEGF/VEGFR inhibitor group)” value in test [1] (Apatinib 10 μM) is on record as “Increased by 40-50%”; in test [1] (Axitinib 10 μM), “Increased by 20-30%”; in test [1] (Lenvatinib Mesylate 10 μM), “Increased by 30-50%”; in test [1] (Nintedanib Esylate 10 μM) it was “Increased by 30-50%”; in test [1] (Pazopanib Hydrochloride 10 μM), “Increased by 20-30%”; in test [1] (Regorafenib 10 μM) it was “Increased by 15-20%”. Also, the “Cell Survival Rate (viable cells increased vs VEGF/VEGFR inhibitor group)” value was “Increased by 30-40%” in test [1] (Sorafenib 5 μM), “Increased by 20-25%” in test [1] (Sunitinib 5 μM) and “Increased by 20-30%” in test [1] (Thalidomide 10 μM).

On to `O=[N+]([O-])O[C@H]1CO[C@H]2[C@@H]1OC[C@H]2O[N+](=O)[O-]` [Isosorbide Dinitrate], for which, in test [2] (setting [5]), the “Cell Survival Rate (percentage of viable cells increased as compared to the VEGF/VEGFR inhibitor group)” value is “by 20-50%”.

Take `O=[N+]([O-])O[C@@H]1CO[C@H]2[C@@H]1OC[C@@H]2O` [Isosorbide Mononitrate]: the “Cell Survival Rate (percentage of viable cells increased as compared to the VEGF/VEGFR inhibitor group)” value is “by 20-50%” in test [2] (setting [5]) and “by 20-40%” in test [3]. Moreover, the “Cell Survival Rate (viable cells increased vs VEGF/VEGFR inhibitor group)” value was “Increased by 20-30%” in test [1] (Regorafenib 10 μM), “Increased by 30-35%” in test [1] (Sorafenib 5 μM) and “Increased by 20-25%” in test [1] (Sunitinib 5 μM).

Turning to `CCOC(=O)[N-]c1cn(N2CCOCC2)n[o+]1` [Molsidomine], the “Cell Survival Rate (viable cells increased vs VEGF/VEGFR inhibitor group)” value in test [1] (Apatinib 10 μM) is “Increased by 40-50%”; in test [1] (Axitinib 10 μM) it was “Increased by 20-30%”; in test [1] (Lenvatinib Mesylate 10 μM) it was “Increased by 30-50%”; in test [1] (Nintedanib Esylate 10 μM) it was “Increased by 30-50%”; in test [1] (Pazopanib Hydrochloride 10 μM), “Increased by 20-30%”; in test [1] (Regorafenib 10 μM), “Increased by 20-30%”. For the same compound, the “Cell Survival Rate (viable cells increased vs VEGF/VEGFR inhibitor group)” value in test [1] (Sorafenib 5 μM) was “Increased by 30-40%”; in test [1] (Sunitinib 5 μM), “Increased by 20-30%”; in test [1] (Thalidomide 10 μM) it was “Increased by 20-30%”.

As to `O=C(NCCO[N+](=O)[O-])c1cccnc1` [Nicorandil], the “Cell Survival Rate (viable cells increased vs VEGF/VEGFR inhibitor group)” value in test [1] (Apatinib 10 μM) was “Increased by 40-50%”; in test [1] (Axitinib 10 μM), “Increased by 20-30%”; in test [1] (Lenvatinib Mesylate 10 μM), “Increased by 30-50%”; in test [1] (Nintedanib Esylate 10 μM), “Increased by 30-50%”; in test [1] (Pazopanib Hydrochloride 10 μM), “Increased by 20-30%”; in test [1] (Regorafenib 10 μM) it was “Increased by 20-30%”. Moreover, the “Cell Survival Rate (viable cells increased vs VEGF/VEGFR inhibitor group)” value in test [1] (Sorafenib 5 μM) was “Increased by 50-60%”; in test [1] (Sunitinib 5 μM), “Increased by 10-20%”; in test [1] (Thalidomide 10 μM) it was “Increased by 20-30%”.

Turning to `O=[N+]([O-])OCC(CO[N+](=O)[O-])O[N+](=O)[O-]` [Nitroglycerin], the entries for the “Cell Survival Rate (percentage of viable cells increased as compared to the VEGF/VEGFR inhibitor group)” value in test [2] and in test [3] were “by 20-40%” and “by 25-50%”, respectively.

Consider `CCCc1nn(C)c2c(=O)[nH]c(-c3cc(S(=O)(=O)N4CCN(C)CC4)ccc3OCC)nc12` [Sildenafil], for which the “Cell Survival Rate (viable cells increased vs VEGF/VEGFR inhibitor group)” value in test [1] (Regorafenib 10 μM), in test [1] (Sorafenib 5 μM) and in test [1] (Sunitinib 5 μM) was “No significant change” in each case.

Take `COc1ccc([C@@H]2Sc3ccccc3N(CCN(C)C)C(=O)[C@@H]2OC(C)=O)cc1` [diltiazem]: the “expression level of calmodulin (CaM), gray value analysis” value in test [4] is recorded as “decreased significantly”.

For the origin of these results see US10987336B2, “Method of preventing or treating side effect of tumor therapy” (priority 2018, dated 2021).
